Reference: patent publication US11634404B2 (priority 2016, dated 2023)

Columns and labels:
Format in all cases: cell-based
panel of 168 GPCRs [1] = target: panel of 168 GPCRs (Homo sapiens, UniProt P48146); conditions: GPCR NPBWR2; agonist, 10 μM
panel of 168 GPCRs [2] = target: panel of 168 GPCRs (Homo sapiens, UniProt P43116); conditions: GPCR PTGER2; agonist, 10 μM
panel of 168 GPCRs [3] = target: panel of 168 GPCRs (Homo sapiens, UniProt P25116); conditions: GPCR F2R; agonist, 10 μM
panel of 168 GPCRs [4] = target: panel of 168 GPCRs (Homo sapiens, UniProt P32249); conditions: GPCR EBI2; agonist, 10 μM
panel of 168 GPCRs [5] = target: panel of 168 GPCRs (Homo sapiens, UniProt P35462); conditions: GPCR DRD3; agonist, 10 μM
panel of 168 GPCRs [6] = target: panel of 168 GPCRs (Homo sapiens, UniProt P41597); conditions: GPCR CCR2; agonist, 10 μM
panel of 168 GPCRs [7] = target: panel of 168 GPCRs (Homo sapiens, UniProt O95838); conditions: GPCR GLP2R; agonist, 10 μM
panel of 168 GPCRs [8] = target: panel of 168 GPCRs (Homo sapiens, UniProt P51684); conditions: GPCR CCR6; agonist, 10 μM
panel of 168 GPCRs [9] = target: panel of 168 GPCRs (Homo sapiens, UniProt P35408); conditions: GPCR PTGER4; agonist, 10 μM
panel of 168 GPCRs [10] = conditions: GPCR DRD2S; agonist, 10 μM
panel of 168 GPCRs [11] = target: panel of 168 GPCRs (Homo sapiens, UniProt P35372); conditions: GPCR OPRM1; agonist, 10 μM
panel of 168 GPCRs [12] = target: panel of 168 GPCRs (Homo sapiens, UniProt P35414); conditions: GPCR AGTRL1; agonist, 10 μM
panel of 168 GPCRs [13] = target: panel of 168 GPCRs (Homo sapiens, UniProt Q9HBW0); conditions: GPCR EDG4; agonist, 10 μM
panel of 168 GPCRs [14] = target: panel of 168 GPCRs (Homo sapiens, UniProt Q92847); conditions: GPCR GHSR; agonist, 10 μM
panel of 168 GPCRs [15] = target: panel of 168 GPCRs (Homo sapiens, UniProt Q9Y5N1); conditions: GPCR HRH3; agonist, 10 μM
panel of 168 GPCRs [16] = target: panel of 168 GPCRs (Homo sapiens, UniProt P23945); conditions: GPCR FSHR; agonist, 10 μM
panel of 168 GPCRs [17] = target: panel of 168 GPCRs (Homo sapiens, UniProt O43613); conditions: GPCR HCRTR1; agonist, 10 μM
panel of 168 GPCRs [18] = target: panel of 168 GPCRs (Homo sapiens, UniProt Q96LB2); conditions: GPCR MRGPRX1; agonist, 10 μM
panel of 168 GPCRs [19] = target: panel of 168 GPCRs (Homo sapiens, UniProt P30559); conditions: GPCR OXTR; agonist, 10 μM
panel of 168 GPCRs [20] = target: panel of 168 GPCRs (Homo sapiens, UniProt Q9HC97); conditions: GPCR GPR35; agonist, 10 μM
panel of 168 GPCRs [21] = target: panel of 168 GPCRs (Homo sapiens, UniProt P21731); conditions: GPCR TBXA2R; agonist, 10 μM
panel of 168 GPCRs [22] = target: panel of 168 GPCRs (Homo sapiens, UniProt P08908); conditions: GPCR HTR1A; agonist, 10 μM
panel of 168 GPCRs [23] = target: panel of 168 GPCRs (Homo sapiens, UniProt P28222); conditions: GPCR HTR1B; agonist, 10 μM
panel of 168 GPCRs [24] = target: panel of 168 GPCRs (Homo sapiens, UniProt P30872); conditions: GPCR SSTR1; agonist, 10 μM
panel of 168 GPCRs [25] = target: panel of 168 GPCRs (Homo sapiens, UniProt P21917); conditions: GPCR DRD4; agonist, 10 μM
panel of 168 GPCRs [26] = target: panel of 168 GPCRs (Homo sapiens, UniProt P21730); conditions: GPCR C5AR1; agonist, 10 μM
panel of 168 GPCRs [27] = target: panel of 168 GPCRs (Homo sapiens, UniProt Q9H244); conditions: GPCR P2RY12; agonist, 10 μM
panel of 168 GPCRs [28] = target: panel of 168 GPCRs (Homo sapiens, UniProt P43115); conditions: GPCR PTGER3; agonist, 10 μM
panel of 168 GPCRs [29] = target: panel of 168 GPCRs (Homo sapiens, UniProt Q96RI0); conditions: GPCR F2RL3; agonist, 10 μM
panel of 168 GPCRs [30] = target: panel of 168 GPCRs (Homo sapiens, UniProt P21728); conditions: GPCR DRD1; agonist, 10 μM
panel of 168 GPCRs [31] = target: panel of 168 GPCRs (Homo sapiens, UniProt P30518); conditions: GPCR AVPR2; agonist, 10 μM
panel of 168 GPCRs [32] = target: panel of 168 GPCRs (Homo sapiens, UniProt P30550); conditions: GPCR GRPR; agonist, 10 μM

Sequence of panel of 168 GPCRs (Homo sapiens, UniProt Q96RI0) (Q96RI0 18-385 limits assumed): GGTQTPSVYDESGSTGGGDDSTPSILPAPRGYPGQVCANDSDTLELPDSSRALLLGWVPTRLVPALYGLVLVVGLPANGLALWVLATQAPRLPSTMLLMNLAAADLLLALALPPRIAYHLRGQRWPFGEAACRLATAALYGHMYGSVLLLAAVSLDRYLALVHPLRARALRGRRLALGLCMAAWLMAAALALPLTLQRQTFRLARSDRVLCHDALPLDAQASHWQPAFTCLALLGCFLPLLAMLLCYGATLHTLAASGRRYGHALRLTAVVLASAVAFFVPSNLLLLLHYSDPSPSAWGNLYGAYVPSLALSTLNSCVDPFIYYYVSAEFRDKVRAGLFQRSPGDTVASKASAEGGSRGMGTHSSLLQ
Sequence of panel of 168 GPCRs (Homo sapiens, UniProt P25116) (P25116 22-425 limits assumed): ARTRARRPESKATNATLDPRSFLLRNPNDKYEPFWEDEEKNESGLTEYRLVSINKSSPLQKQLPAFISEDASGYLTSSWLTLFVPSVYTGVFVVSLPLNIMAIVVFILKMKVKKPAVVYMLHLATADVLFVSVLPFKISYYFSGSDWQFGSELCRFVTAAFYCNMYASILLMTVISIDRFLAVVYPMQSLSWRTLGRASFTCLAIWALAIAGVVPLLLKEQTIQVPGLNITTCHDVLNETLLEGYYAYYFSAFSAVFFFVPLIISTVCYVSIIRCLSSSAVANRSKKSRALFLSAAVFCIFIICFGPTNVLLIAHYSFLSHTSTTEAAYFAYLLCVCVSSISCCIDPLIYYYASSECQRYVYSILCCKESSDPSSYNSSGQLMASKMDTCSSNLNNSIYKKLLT
Sequence of panel of 168 GPCRs (Homo sapiens, UniProt P23945) (P23945 18-695 limits assumed): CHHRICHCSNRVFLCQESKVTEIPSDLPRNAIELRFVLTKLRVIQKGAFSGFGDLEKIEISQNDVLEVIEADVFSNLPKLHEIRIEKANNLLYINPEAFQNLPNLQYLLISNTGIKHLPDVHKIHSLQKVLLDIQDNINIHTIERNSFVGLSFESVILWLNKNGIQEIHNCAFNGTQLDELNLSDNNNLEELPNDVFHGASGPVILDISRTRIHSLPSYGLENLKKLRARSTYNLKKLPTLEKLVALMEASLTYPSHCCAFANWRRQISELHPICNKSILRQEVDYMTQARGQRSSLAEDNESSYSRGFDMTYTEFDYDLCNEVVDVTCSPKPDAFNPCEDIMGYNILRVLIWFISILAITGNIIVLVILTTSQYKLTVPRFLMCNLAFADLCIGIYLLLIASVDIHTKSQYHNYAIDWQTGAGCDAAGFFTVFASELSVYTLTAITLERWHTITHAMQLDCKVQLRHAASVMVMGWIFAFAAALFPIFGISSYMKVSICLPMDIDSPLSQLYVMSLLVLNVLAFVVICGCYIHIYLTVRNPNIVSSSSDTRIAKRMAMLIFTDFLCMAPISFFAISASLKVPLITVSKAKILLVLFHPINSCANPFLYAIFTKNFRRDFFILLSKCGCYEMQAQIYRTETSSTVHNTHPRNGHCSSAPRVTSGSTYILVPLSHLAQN

COc1ccc(OCCN2CCN(C(=O)c3cc4ccccc4[nH]3)CC2)cc1 [Compound 1, (1H-indol-2-yl)(4-(2-(4-methoxyphenoxy)ethyl)piperazin-1-yl)methanone]
β-Arrestin Recruitment activity (panel of 168 GPCRs [1]): 3%
β-Arrestin Recruitment activity (panel of 168 GPCRs [2]): −3%
β-Arrestin Recruitment activity (panel of 168 GPCRs [3]): 5%
β-Arrestin Recruitment activity (panel of 168 GPCRs [4]): 0%
β-Arrestin Recruitment activity (panel of 168 GPCRs [5]): 164%
β-Arrestin Recruitment activity (panel of 168 GPCRs [6]): 4%
β-Arrestin Recruitment activity (panel of 168 GPCRs [7]): 0%
β-Arrestin Recruitment activity (panel of 168 GPCRs [8]): 0%
β-Arrestin Recruitment activity (panel of 168 GPCRs [9]): 6%
β-Arrestin Recruitment activity (panel of 168 GPCRs [10]): 43%
β-Arrestin Recruitment activity (panel of 168 GPCRs [11]): 0%
β-Arrestin Recruitment activity (panel of 168 GPCRs [12]): 4%
β-Arrestin Recruitment activity (panel of 168 GPCRs [13]): 6%
β-Arrestin Recruitment activity (panel of 168 GPCRs [14]): −3%
β-Arrestin Recruitment activity (panel of 168 GPCRs [15]): 3%
β-Arrestin Recruitment activity (panel of 168 GPCRs [16]): 5%
β-Arrestin Recruitment activity (panel of 168 GPCRs [17]): 0%
β-Arrestin Recruitment activity (panel of 168 GPCRs [18]): 3%
β-Arrestin Recruitment activity (panel of 168 GPCRs [19]): 0%
β-Arrestin Recruitment activity (panel of 168 GPCRs [20]): 6%
β-Arrestin Recruitment activity (panel of 168 GPCRs [21]): 0%
β-Arrestin Recruitment activity (panel of 168 GPCRs [22]): 8%
β-Arrestin Recruitment activity (panel of 168 GPCRs [23]): 16%
β-Arrestin Recruitment activity (panel of 168 GPCRs [24]): 0%
β-Arrestin Recruitment activity (panel of 168 GPCRs [25]): 4%
β-Arrestin Recruitment activity (panel of 168 GPCRs [26]): 0%
β-Arrestin Recruitment activity (panel of 168 GPCRs [27]): 4%
β-Arrestin Recruitment activity (panel of 168 GPCRs [28]): 3%
β-Arrestin Recruitment activity (panel of 168 GPCRs [29]): 4%
β-Arrestin Recruitment activity (panel of 168 GPCRs [30]): 0%
β-Arrestin Recruitment activity (panel of 168 GPCRs [31]): 4%
β-Arrestin Recruitment activity (panel of 168 GPCRs [32]): 0%
